Calls of active or inactive are those of the source. No cut-off for these calls is given here.
How the values were obtained:
[1] = target: Poly [ADP-ribose] polymerase 1 (Homo sapiens, UniProt P09874)
Description: Inhibition of PARP1 in human HeLa cells by microplate scintillation counting

[2] = target: T1, Poly [ADP-ribose] polymerase tankyrase-1 (Homo sapiens) (UniProt O95271); assay: Inhibition of human tankyrase 1 catalytic domain expressed in Escherichia coli up to 500 nM
T1 sequence (whole entry): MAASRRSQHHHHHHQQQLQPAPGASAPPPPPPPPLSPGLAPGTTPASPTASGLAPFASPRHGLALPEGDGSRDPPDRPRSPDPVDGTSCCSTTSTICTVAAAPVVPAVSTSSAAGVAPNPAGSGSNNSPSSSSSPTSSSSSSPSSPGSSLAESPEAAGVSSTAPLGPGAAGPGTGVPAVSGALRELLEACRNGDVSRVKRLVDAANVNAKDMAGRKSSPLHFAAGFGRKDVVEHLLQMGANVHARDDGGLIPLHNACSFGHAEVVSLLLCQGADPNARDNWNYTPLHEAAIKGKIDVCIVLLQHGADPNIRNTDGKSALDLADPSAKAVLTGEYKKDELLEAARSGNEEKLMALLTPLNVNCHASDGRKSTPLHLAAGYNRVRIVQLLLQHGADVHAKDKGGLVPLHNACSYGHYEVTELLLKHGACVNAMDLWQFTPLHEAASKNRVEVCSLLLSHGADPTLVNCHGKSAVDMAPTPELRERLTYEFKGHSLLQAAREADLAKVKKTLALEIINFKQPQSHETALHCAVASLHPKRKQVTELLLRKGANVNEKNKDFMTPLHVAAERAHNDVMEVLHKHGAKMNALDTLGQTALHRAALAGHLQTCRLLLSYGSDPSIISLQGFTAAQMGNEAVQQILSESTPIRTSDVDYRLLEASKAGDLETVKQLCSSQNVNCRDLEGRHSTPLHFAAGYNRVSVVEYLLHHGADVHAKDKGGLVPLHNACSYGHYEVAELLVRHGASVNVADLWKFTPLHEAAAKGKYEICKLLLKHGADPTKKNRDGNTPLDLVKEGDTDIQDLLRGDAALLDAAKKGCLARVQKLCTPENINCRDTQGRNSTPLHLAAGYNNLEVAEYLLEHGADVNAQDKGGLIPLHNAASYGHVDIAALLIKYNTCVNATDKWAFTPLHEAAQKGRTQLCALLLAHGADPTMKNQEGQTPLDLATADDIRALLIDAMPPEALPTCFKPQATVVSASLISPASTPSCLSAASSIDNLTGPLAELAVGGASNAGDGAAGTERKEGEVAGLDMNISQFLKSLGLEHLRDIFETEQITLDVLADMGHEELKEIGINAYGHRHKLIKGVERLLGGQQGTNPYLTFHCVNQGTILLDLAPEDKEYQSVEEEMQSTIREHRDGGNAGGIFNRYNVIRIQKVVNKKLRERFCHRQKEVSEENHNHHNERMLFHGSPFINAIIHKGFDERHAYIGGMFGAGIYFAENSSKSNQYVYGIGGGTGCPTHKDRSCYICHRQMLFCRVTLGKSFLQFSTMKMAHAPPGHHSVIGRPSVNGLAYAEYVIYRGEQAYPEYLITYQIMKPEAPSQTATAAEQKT

[3] = target: T2, Protein mono-ADP-ribosyltransferase PARP3 (Homo sapiens) (UniProt Q9Y6F1); assay: Inhibition of human PARP3 up to 500 nM
T2 sequence (whole entry): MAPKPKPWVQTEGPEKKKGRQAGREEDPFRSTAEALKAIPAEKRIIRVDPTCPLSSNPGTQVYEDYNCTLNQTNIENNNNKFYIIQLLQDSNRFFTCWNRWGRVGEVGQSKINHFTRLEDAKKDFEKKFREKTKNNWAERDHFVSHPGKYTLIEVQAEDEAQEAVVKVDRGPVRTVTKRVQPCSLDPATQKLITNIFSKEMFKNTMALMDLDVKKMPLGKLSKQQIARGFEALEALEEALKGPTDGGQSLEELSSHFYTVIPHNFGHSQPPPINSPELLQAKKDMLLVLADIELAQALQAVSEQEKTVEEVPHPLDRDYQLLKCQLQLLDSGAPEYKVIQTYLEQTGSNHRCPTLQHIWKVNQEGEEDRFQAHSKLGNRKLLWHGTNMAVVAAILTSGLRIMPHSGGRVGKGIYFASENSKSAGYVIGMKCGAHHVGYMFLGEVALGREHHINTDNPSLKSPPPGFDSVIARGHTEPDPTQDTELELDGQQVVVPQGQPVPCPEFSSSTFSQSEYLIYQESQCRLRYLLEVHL

[4] = target: Poly [ADP-ribose] polymerase 2 (Homo sapiens, UniProt Q9UGN5); assay: Inhibition of human PARP2 expressed in baculovirus system
[5] = target: Protein mono-ADP-ribosyltransferase PARP4 (Homo sapiens) (UniProt Q9UKK3); assay: Inhibition of human vPARP catalytic domain expressed in Escherichia coli up to 500 nM
Sequence of Protein mono-ADP-ribosyltransferase PARP4 (Homo sapiens) (Q9UKK3 whole entry, the tested form may be a part): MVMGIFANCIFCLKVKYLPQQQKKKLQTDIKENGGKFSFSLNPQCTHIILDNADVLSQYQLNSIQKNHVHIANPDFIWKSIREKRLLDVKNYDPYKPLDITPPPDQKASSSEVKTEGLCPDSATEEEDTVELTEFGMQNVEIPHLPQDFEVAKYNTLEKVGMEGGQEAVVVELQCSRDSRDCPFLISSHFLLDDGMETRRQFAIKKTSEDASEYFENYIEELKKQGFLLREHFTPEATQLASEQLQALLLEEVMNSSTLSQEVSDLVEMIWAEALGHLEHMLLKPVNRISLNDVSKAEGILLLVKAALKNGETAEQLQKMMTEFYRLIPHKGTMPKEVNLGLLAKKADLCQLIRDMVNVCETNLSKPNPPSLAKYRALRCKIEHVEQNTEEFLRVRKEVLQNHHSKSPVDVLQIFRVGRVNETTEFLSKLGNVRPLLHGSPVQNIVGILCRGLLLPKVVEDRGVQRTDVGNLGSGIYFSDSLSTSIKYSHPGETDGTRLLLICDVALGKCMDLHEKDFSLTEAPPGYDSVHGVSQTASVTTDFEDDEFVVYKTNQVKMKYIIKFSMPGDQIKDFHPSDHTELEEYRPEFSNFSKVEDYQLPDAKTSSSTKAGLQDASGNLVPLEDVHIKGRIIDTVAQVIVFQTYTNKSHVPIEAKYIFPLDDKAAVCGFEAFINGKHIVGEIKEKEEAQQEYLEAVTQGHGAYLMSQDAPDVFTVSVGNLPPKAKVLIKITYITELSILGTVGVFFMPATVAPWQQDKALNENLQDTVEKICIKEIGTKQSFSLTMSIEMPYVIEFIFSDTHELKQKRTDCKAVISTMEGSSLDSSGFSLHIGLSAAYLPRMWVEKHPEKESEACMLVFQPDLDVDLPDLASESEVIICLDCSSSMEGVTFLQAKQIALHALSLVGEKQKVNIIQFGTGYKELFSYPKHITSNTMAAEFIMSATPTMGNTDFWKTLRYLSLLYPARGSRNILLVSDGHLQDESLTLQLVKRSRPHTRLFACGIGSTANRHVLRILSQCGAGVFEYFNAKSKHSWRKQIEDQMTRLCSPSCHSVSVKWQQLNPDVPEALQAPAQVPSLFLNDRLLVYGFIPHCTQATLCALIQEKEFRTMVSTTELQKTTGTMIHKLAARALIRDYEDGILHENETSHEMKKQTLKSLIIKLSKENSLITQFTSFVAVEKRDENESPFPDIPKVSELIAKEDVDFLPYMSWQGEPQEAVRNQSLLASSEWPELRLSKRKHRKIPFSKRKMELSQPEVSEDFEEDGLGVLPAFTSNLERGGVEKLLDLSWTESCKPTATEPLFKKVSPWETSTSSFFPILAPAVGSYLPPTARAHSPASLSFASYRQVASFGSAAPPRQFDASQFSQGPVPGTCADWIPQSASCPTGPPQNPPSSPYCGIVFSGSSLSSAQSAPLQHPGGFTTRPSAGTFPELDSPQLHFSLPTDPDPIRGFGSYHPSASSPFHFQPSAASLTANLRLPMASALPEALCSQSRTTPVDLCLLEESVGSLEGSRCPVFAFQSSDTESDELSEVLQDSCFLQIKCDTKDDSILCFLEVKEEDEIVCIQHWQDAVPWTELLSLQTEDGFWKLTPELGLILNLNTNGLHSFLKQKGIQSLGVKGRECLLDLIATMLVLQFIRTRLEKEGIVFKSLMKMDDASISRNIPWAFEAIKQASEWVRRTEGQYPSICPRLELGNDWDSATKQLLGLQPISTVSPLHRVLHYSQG

Sequence of Poly [ADP-ribose] polymerase 1 (P09874 whole entry, the tested form may be a part): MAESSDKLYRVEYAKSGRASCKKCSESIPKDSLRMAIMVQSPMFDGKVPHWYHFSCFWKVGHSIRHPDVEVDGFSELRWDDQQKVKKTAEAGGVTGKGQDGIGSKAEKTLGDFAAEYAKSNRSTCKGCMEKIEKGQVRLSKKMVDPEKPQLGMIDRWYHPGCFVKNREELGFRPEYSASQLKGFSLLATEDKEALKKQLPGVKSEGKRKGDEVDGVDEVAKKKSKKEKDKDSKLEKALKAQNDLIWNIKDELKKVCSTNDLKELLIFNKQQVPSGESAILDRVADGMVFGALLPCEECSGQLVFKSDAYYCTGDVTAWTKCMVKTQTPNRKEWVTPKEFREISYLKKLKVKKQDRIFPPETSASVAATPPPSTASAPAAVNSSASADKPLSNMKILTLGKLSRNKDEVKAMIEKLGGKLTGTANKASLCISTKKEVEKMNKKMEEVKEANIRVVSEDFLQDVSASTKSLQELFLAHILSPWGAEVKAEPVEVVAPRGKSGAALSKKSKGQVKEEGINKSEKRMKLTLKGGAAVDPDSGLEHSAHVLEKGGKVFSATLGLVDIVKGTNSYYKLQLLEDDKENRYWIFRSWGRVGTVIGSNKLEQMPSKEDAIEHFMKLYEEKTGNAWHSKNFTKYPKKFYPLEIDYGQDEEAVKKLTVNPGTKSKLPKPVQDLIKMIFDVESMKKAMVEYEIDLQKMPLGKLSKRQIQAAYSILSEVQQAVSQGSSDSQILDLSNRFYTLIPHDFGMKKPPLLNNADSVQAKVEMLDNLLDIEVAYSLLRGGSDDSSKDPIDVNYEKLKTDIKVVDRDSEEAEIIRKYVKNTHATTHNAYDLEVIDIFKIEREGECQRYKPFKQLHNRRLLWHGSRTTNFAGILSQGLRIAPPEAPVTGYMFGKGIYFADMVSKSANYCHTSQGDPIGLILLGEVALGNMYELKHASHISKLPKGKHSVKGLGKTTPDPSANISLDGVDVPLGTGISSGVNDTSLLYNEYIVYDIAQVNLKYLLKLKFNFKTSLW
Sequence of Poly [ADP-ribose] polymerase 2 (Q9UGN5 whole entry, the tested form may be a part): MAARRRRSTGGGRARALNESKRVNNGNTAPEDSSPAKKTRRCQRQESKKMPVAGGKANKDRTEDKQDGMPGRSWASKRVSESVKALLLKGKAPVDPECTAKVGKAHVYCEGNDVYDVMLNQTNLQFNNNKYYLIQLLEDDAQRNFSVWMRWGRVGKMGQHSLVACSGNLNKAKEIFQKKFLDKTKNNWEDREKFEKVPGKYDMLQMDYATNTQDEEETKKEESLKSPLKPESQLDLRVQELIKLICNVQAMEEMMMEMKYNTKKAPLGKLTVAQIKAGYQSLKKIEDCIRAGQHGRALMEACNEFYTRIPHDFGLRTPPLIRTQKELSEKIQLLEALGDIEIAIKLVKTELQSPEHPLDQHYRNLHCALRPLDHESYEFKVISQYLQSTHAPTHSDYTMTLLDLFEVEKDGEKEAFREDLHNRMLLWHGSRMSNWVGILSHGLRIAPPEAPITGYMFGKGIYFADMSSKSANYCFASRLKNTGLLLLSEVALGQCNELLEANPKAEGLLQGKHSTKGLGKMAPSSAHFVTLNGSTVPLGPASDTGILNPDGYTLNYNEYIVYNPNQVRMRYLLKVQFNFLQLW

Compound	IC50 [1] [nM]	inhibition [2]	inhibition [3]	IC50 [4] [nM]	inhibition [5]
Cn1cc(CNCCc2c[nH]c3ccc4c(c23)CCNC4=O)cn1	> 500				
O=C1NCCc2c1ccc1[nH]cc(CCNCc3cccc4cccnc34)c21	> 500				
O=C1NCCc2c1ccc1[nH]cc(CCNC(=O)N3CCNCC3)c21	25	inactive	inactive	32	inactive
O=C1NCCc2c1ccc1[nH]cc(CCNC(=O)N3CCCNCC3)c21	27	inactive	inactive	17	inactive

Reference: ChEMBL document CHEMBL1153049, “Identification of aminoethyl pyrrolo dihydroisoquinolinones as novel poly(ADP-ribose) polymerase-1 inhibitors” (Bioorg Med Chem Lett, 2009)
